Laboratory results as given in patent US20260217712A1, “SOLID STATE FORMS OF MNK INHIBITORS” (4E Therapeutics, Inc., priority 2023, published 2026).
Values after ≈ are worked out from the molar mass of the structure shown. “Also recorded” adds a separate entry of the source. Read-outs that look alike come from different tables or passages of the source.

Assays:
Format in all cases: physicochemical
[1] = Static storage at 40° C./75% RH, XRPD and HPLC post storage; details: 7 days, listed as 34-1
[2] = Drying / standing under ambient conditions, XRPD; details: listed as 34-1
[3] = Competitive slurries of Pattern 3 and Pattern 11, XRPD
Method: A solid mixture of Structure (I) Pattern 3 (from Lot B, 300 mg) and Pattern 11 (Sample 35-1, 300 mg) was mixed for 3 hours using a turbula mixer.
The solid mixture (30 mg) was suspended in solvent (dried with molecular sieves, 600 μL, 20 vol) and either stirred in the fridge, shaken at RT or 55° C. After 7 days, an aliquot of each suspension was analyzed by XRPD. Samples that were still a mixture of forms were placed back into fridge/shakers for a further 10 days and re-analyzed (results shown in Table 36).
Competitive slurry experiments at 55° C., along with one at 5° C., were repeated using a saturated solution as the solvent mixture to minimize dissolution that may have occurred at temperatures other than room temperature.
A saturated solution of THF/Water (9:1) (5 mL) with Structure (I) (from Lot B) was equilibrated at 55° C. overnight in a shaker. The solution was filtered using 0.45 μm nylon filter before use.
A solid mixture of Pattern 3 and Pattern 11 (30 mg) was suspended in the saturated solution (600 μL, 20 vol) and either stirred in the fridge (5° C.) or shaken at 55° C. After 1 day, aliquots of the suspensions were analyzed by XRPD. Both samples were placed back into fridge/shaker. After a total of 11 days, the samples were removed from fridge/shaker. Sample 38-2 was filtered before XRPD, Sample 38-1 was pipetted onto the XRPD holder and allowed to dry before analysis (solid passed through filter).

[4] = Thermodynamic solubility in simulated media and buffers; details: for solubility at 24 h: 25 °C, thermodynamic from solid
Method: The thermodynamic solubility for Pattern 11 was determined in 3 simulated media and two buffers. […]

[5] = Static storage at 25° C./97% RH, XRPD and HPLC post storage; details: 10 days
[6] = Drying / standing under ambient conditions, XRPD; details: ambient conditions
Method: Structure (I) (Sample 28-2, 30 mg, Poorly Crystalline Pattern 3) was wetted with solvent (300 μL, 10 vol) according to Table 30 and put into a shaker at 50° C. for 6 days. The suspensions were isolated using filter cartridges and positive pressure. A XRPD pattern was collected for each sample. […] This characterization is presented and discussed in Examples detailed herein. (see, e.g., FIG. 75)

[7] = Static storage at 40° C./75% RH, XRPD and HPLC post storage
Method: Purity analysis was performed on an Agilent HP1100/Infinity II 1260 series system equipped with a diode array detector and using OpenLAB software. The full method details are provided below:
Poorly Crystalline Structure (I) (from Lot A, Free Form Pattern 1, 30 mg) was dissolved in 50 volumes of THF:Water 9:1 at 60° C. in 13 vials, stirring at 500 RPM (small amount of debris present). The solutions were then treated with 1.1 molar equivalents (90/180 μL) of selected counter-ions (Table 7). The resulting solutions were then cooled down to 5° C. at 0.1° C./min and were held at this temperature for 2 days. The suspensions were filtered and dried under suction for 20 min. The gummed sample was left with the cap off to promote crystallization. All solids obtained were initially analyzed by XRPD and stored in glass HPLC vials for subsequent analysis.
Any solids obtained were analyzed by XRPD, ^1H NMR, HPLC, TGA, DSC, XRPD post storage at 40° C./75% RH after 7 days & IC if necessary. Additional microscopy techniques (PLM & HSM) were used to complement the above analysis where appropriate.

[8] = Gravimetric vapor sorption (GVS) and XRPD post-GVS; details: for GVS reversible water uptake 0-90% RH: 25° C.; for Post GVS XRPD form: after double cycle GVS
Method: Sorption isotherms were obtained using a SMS DVS Intrinsic moisture sorption analyzer, controlled by DVS Intrinsic Control software. The sample temperature was maintained at 25° C. by the instrument controls. The humidity was controlled by mixing streams of dry and wet nitrogen, with a total flow rate of 200 mL/min. The relative humidity was measured by a calibrated Rotronic probe (dynamic range of 1.0-100% RH), located near the sample. The weight change, (mass relaxation) of the sample as a function of % RH was constantly monitored by a microbalance (accuracy±0.005 mg).
(§1) Typically, 5-30 mg of sample was placed in a tared mesh stainless steel basket under ambient conditions. The sample was loaded and unloaded at 40% RH and 25° C. (typical room conditions). A moisture sorption isotherm was performed as outlined below (2 scans per complete cycle). The standard isotherm was performed at 25° C. at 10% RH intervals over a 0-90% RH range. Typically, a double cycle (4 scans) was carried out. Data analysis was carried out within Microsoft Excel using the DVS Analysis Suite.
Sorption isotherms were obtained using a Hiden IGASorp moisture sorption analyser, controlled by Isochema HISorp software. The sample temperature was maintained at 25° C. by a Grant LT ecocool 150 re-circulating water bath. The humidity was controlled by mixing streams of dry and wet nitrogen, with a total flow rate of 250 ml·min-1. The relative humidity was measured by a calibrated Vaisala RH probe (dynamic range of 0-95% RH), located near the sample. The weight change, (mass relaxation) of the sample as a function of % RH was constantly monitored by the microbalance (accuracy±0.001 mg).
as §1, with “Typically, 20-30” for “Typically, 5-30”, “scans giving 1” for “scans per”, “within the Isochema HISorp 2019 software and exported into” for “within”, “Excel to present accordingly.” for “Excel using the DVS Analysis Suite.”

XRPD post storage at 40° C./75% RH [1]: 7 days: Pattern 11 + extra peaks (not
form under ambient conditions (XRPD after ambient overnight) [2]: Pattern 11
form conversion in competitive slurries (in words) [3]: no conversion of Pattern 11 to Pattern 3
Solubility FaSSGF ([4]; FaSSGF, 25° C./24 h, listed as 35-1): FaSSGF-0.078 mg/mL
solubility at 24 h ([4]; FaSSIF, fassif, FaSSIF, 25° C./24 h, read-out: Solubility FaSSIF): 1.4 µg/mL (≈ 3.82 µM)
solubility at 24 h ([4]; FeSSIF, fessif, FeSSIF, 25° C./24 h, read-out: Solubility FeSSIF): 4 µg/mL (≈ 10.9 µM)
Solubility pH 2.0 ([4]; pH 2.0 buffer, 25° C./24 h, listed as 35-1): pH 2.0-0.052 mg/mL
solubility at 24 h ([4]; pH 7.4 buffer, pH 7.4, aqueous buffer, pH 7.4 buffer, 25° C./24 h, read-out: Solubility pH 7.4): 1 µg/mL (≈ 2.73 µM)
solubility in simulated fluids and buffers (in words) ([4]; simulated media and buffers): practically insoluble
Static storage 25° C./97% RH, form [5]: 10 days: No change in form-Pattern 11
Static storage 25° C./97% RH, purity [5]: Purity: 98.1%
XRPD form after storage at 40° C./75% RH, 3 days ([7]; 40° C./75% RH, 3 days): 3 days: No change in form-Pattern 11
Static storage 40° C./75% RH, form ([7]; 40° C./75% RH, 10 days): form and purity was found to stable
Static storage 40° C./75% RH, purity ([7]; 40° C./75% RH, 10 days): Purity: 98.0%
Static storage 40° C./75% RH, form ([7]; 40° C./75% RH, 10 days, listed as 35-1): 10 days: No change in form-Pattern 11
hygroscopicity (in words) [8]: only slightly hygroscopic
GVS reversible water uptake 0-90% RH [8]: 0.3 wt %
Post GVS XRPD form [8]: remained Pattern 11
Post GVS XRPD form ([8]; listed as 35-1): Post GVS XRPD: Pattern 11 + peak at 7.7°
hygroscopicity (in words) ([8]; listed as Structure (I) Pattern 11): only slightly hygroscopic
Compound: Cc1cc(Nc2cc(N)ncn2)c(=O)n2c1C(=O)NC21CCC2(CC2)CC1 [Pattern 11]
form under ambient conditions (XRPD after ambient overnight) [6]: stable at ambient conditions; also recorded: stable at room temperature
stability to storage at 40° C./75% RH (in words) ([7]; 40° C./75% RH (elevated temperature and humidity)): reasonable stability; also recorded: good stability
GVS reversible water uptake 0-90% RH ([8]; listed as 35-1): 0.3 wt % reversible water uptake 0-90% RH with a
